Measured values published in PubChem BioAssay (NCI).
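Results reflect a 48-hour exposure of cells in 96-well plates to compound at five concentrations. TGI is the concentration that stops growth completely.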

Columns and labels:
Assay in all cases: NCI anticancer screen, dose series, 48 h
ACHN renal = tested on: ACHN renal
UO-31 renal = tested on: UO-31 renal
PC-3 prostate = tested on: PC-3 prostate
NCI-H226 lung = tested on: NCI-H226 lung
SR leukemia = tested on: SR leukemia
COLO 205 colon = tested on: COLO 205 colon
SN12C renal = tested on: SN12C renal
SF-268 CNS = tested on: SF-268 CNS
OVCAR-5 ovarian = tested on: OVCAR-5 ovarian
HT29 colon = tested on: HT29 colon

SMILES	TGI (ACHN renal)	TGI (UO-31 renal)	TGI (PC-3 prostate)	TGI (NCI-H226 lung)	TGI (SR leukemia)	TGI (COLO 205 colon)	TGI (SN12C renal)	TGI (SF-268 CNS)	TGI (OVCAR-5 ovarian)	TGI (HT29 colon)
COc1cc2c(cc1OC)C13CC[N+]4(C)CC5=CCOC6CC(=O)N2C1C6C5CC34[O-] (stereo not given)	> 100 µM	> 100 µM	> 100 µM	> 100 µM	> 100 µM	> 100 µM	> 100 µM	> 100 µM	–	–
CC1(C)[C@@H](Cn2cnc3c(Cl)nc(N)nc32)CC[C@@]1(C)CO	> 100 µM	15 µM	> 100 µM	91.7 µM	–	> 100 µM	> 100 µM	43.3 µM	> 100 µM	–
COP(=O)(OC)C12CCOCCN1c1ccccc1C2=O (stereo not given)	> 100 µM	> 100 µM	> 100 µM	> 100 µM	–	> 100 µM	> 100 µM	> 100 µM	> 100 µM	> 100 µM
COc1ccccc1N1CCN(CCCNC(=O)c2cc(Cl)c(N)c(Cl)c2)CC1	> 100 µM	58.1 µM	–	98 µM	67.5 µM	–	> 100 µM	> 100 µM	> 100 µM	> 100 µM
CC(C)CCn1nc(N)c2nc3ccccc3nc21	> 100 µM	> 100 µM	> 100 µM	> 100 µM	> 100 µM	–	> 100 µM	> 100 µM	> 100 µM	> 100 µM
O=C(OCc1ccccc1)C(Cc1ccccc1)N(Cc1ccccc1)Cc1ccccc1 (stereo not given)	> 100 µM	> 100 µM	–	–	> 100 µM	> 100 µM	> 100 µM	> 100 µM	> 100 µM	> 100 µM
CCCCC/C(C=O)=C\c1ccccc1	> 100 µM	> 100 µM	> 100 µM	> 100 µM	> 100 µM	> 100 µM	–	> 100 µM	–	> 100 µM
O=C1CS(=O)C23c4cc5ccccc5n4CCC2CCCN13 (stereo not given)	> 100 µM	–	> 100 µM	> 100 µM	> 100 µM	> 100 µM	> 100 µM	> 100 µM	> 100 µM	> 100 µM
COc1cc(C=C2C(=O)NC(=S)NC2=O)cc(OC)c1OC	> 100 µM	> 100 µM	> 100 µM	> 100 µM	–	> 100 µM	> 100 µM	> 100 µM	> 100 µM	> 100 µM
NC(=O)c1ncn2c1NC(=O)CC2	–	> 100 µM	–	> 100 µM	–	> 100 µM	> 100 µM	> 100 µM	> 100 µM	> 100 µM
CN(C)P(=O)(Oc1occc1C(O)Cc1ccccc1)N(C)C (stereo not given)	> 100 µM	> 100 µM	> 100 µM	> 100 µM	–	> 100 µM	> 100 µM	> 100 µM	> 100 µM	–
O=C1c2cccc(NCCNCCO)c2C(=O)c2cccc(NCCNCCO)c21	8.16 µM	25.9 µM	3.02 µM	3.51 µM	–	2.09 µM	5.82 µM	2.15 µM	5.67 µM	3.54 µM
